Test system: PDC KRAS tumor spheroids with HUVEC/MSC, viability
Assay: Anticancer human tumor 349418-098-R-PDC patient-derived lung adenocarcinoma cell line growth inhibition [KRAS2]
Conditions: for IC50: curve of first compound; for viability, T/C: stronger effect = lower value
Excerpt: Multicellular complex tumor spheroid response to RAS pathway inhibitors in combination with a targeted agents in patient-derived cell lines with oncogenic KRAS variants from multiple cancer types
A high-throughput screen of multi-cell type tumor spheroids was designed to identify active combinations of targeted small molecules and KRAS pathway inhibitors. Complex spheroids include a stromal component modeled by human endothelial cells (HUVEC) and fibroblasts modeled by human mesenchymal stem cells (MSCs). The concentration ranges selected for each drug and investigational agent were based upon clinically achievable concentrations if the clinical Cmax of the agent was known.
Compounds. The drugs and investigational agents: BI-3406 (NSC825286), BAY-293 (NSC824723), batoprotafib (TNO155; NSC825523), sotorasib (AMG 510; NSC818433), MRTX1257 (NSC819558), elimusertib (BAY 1895344; NSC800525), molibresib (GSK525762; NSC774829), temuterkib (LY3214996; NSC803410), venetoclax (NSC766270), alisertib (NSC759677), olaparib (NSC753686), talazoparib (NSC767125), erdafitinib (NSC781556), ipatasertib (NSC767898), cabozantinib (NSC761068), nintedanib (NSC756659), abemaciclib (NSC768073), docetaxel (NSC628503), trametinib (NSC758246), and sapanisertib (NSC764658) were obtained from the National Cancer Institute (NCI) Developmental Therapeutics Program Chemical Repository. The FDA-approved anticancer drug set is available from the Developmental Therapeutics Program. […] The stock solutions were prepared in dimethyl sulfoxide (DMSO, Sigma-Aldrich, St. Louis, MO, cat. D2650) at 800-fold the tested concentration and stored at -70 degrees C prior to their use. All drugs and investigational agents were tested over a range starting from a high concentration at or near the clinical Cmax and decreasing in half-log increments. If the clinical Cmax for an agent had not been determined, the highest concentration tested was 10 microM.
Cell Culture. All cells were maintained in an incubator at 37 degrees C and 5% CO2 with 95% humidity. The PDC lines were cultured according to standard operating procedures established by the NCI PDMR (https://pdmr.cancer.gov/sops/default.htm). Briefly, all PDCs were thawed and cultured in Matrigel-coated flasks prepared with a working solution of 1X Ham's F-12 nutrient mix, without supplementation (Invitrogen, Waltham, MA, cat. 11765054), 100 U/mL penicillin-streptomycin (Invitrogen, cat. 15140122), and 2.5% Matrigel (Corning Inc., Corning, NY, cat. 354248) for the first three passages. All PDCs were cultured in complete DMEM/F-12 media containing advanced DMEM/F-12 (Invitrogen, cat. 12634028), 4.9% defined fetal bovine serum, heat inactivated (HyClone Laboratories Inc., Logan, UT, cat. SH30070.03HI), 389 ng/mL hydrocortisone (Sigma-Aldrich, cat. H4001), 9.7 ng/mL human EGF recombinant protein (Invitrogen, cat. PHG0313), 23.4 microg/mL adenine (Sigma-Aldrich, cat. A2786), 97.3 U/mL penicillin-streptomycin (Invitrogen, cat. 15140122), 1.9 mM L-glutamine (Invitrogen, cat. 25030081), and 9.7 microM Y-27632 dihydrochloride (Tocris Bioscience, Bristol, United Kingdom, cat. 1254). The PDCs were cultured in complete DMEM/F12 media without 9.7 microM Y-27632 dihydrochloride for at least two passages prior to the screen. The established cell line HOP-62 was cultured in RPMI 1640 medium, HEPES (Invitrogen, cat. 22400105) with 10% defined fetal bovine serum (HyClone Laboratories Inc., cat. SH30070.03) and 2 mM L-glutamine (Invitrogen, cat. 25030081). The pooled donor HUVEC were cultured in endothelial cell growth medium 2 (PromoCell, Heidelberg, Germany, cat. C-22011) and the hMSC were cultured in mesenchymal stem cell growth medium 2 (PromoCell, cat. C-28009). For all experiments, HUVEC and hMSC were used at passages </=5, while the malignant cell lines were used at passages </=15. […]

[1] = second compound 0.0316 µM, first compound 0.00316 µM
[2] = second compound 0.0316 µM, first compound 0.01 µM
[3] = second compound 0.0316 µM, first compound 0.0316 µM
[4] = second compound 0.0316 µM, first compound 0.1 µM
[5] = second compound 0.1 µM, first compound 0.000316 µM
[6] = second compound 0.1 µM, first compound 0.001 µM
[7] = second compound 0.1 µM, first compound 0.00316 µM
[8] = second compound 0.1 µM, first compound 0.01 µM
[9] = second compound 0.1 µM, first compound 0.0316 µM
[10] = second compound 0.1 µM, first compound 0.1 µM
[11] = second compound 0.316 µM, first compound 0.000316 µM
[12] = second compound 0.316 µM, first compound 0.001 µM
[13] = second compound 0.316 µM, first compound 0.00316 µM
[14] = second compound 0.316 µM, first compound 0.01 µM
[15] = second compound 0.316 µM, first compound 0.0316 µM
[16] = second compound 0.316 µM, first compound 0.1 µM
[17] = second compound 1 µM, first compound 0.000316 µM
[18] = second compound 1 µM, first compound 0.001 µM
[19] = second compound 1 µM, first compound 0.00316 µM
[20] = second compound 1 µM, first compound 0.01 µM
[21] = second compound 1 µM, first compound 0.0316 µM
[22] = second compound 1 µM, first compound 0.1 µM
[23] = second compound 3.16 µM, first compound 0.000316 µM
[24] = second compound 3.16 µM, first compound 0.001 µM
[25] = second compound 3.16 µM, first compound 0.00316 µM
[26] = second compound 3.16 µM, first compound 0.01 µM
[27] = second compound 3.16 µM, first compound 0.0316 µM
[28] = second compound 3.16 µM, first compound 0.1 µM
[29] = second compound 0.1 µM, first compound 0.316 µM
[30] = second compound 0.1 µM, first compound 1 µM
[31] = second compound 0.316 µM, first compound 0.316 µM
[32] = second compound 0.316 µM, first compound 1 µM
[33] = second compound 1 µM, first compound 0.316 µM
[34] = second compound 1 µM, first compound 1 µM
[35] = second compound 3.16 µM, first compound 0.316 µM
[36] = second compound 3.16 µM, first compound 1 µM
[37] = second compound 10 µM, first compound 0.01 µM
[38] = second compound 10 µM, first compound 0.0316 µM
[39] = second compound 10 µM, first compound 0.1 µM
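Further: spheroids exposed to compounds for seven days before readout.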

| Compound | IC50 (second compound 0.1 µM) [nM] | IC50 (second compound 0.316 µM) [nM] | IC50 (second compound 1 µM) [nM] | IC50 (second compound 3.16 µM) [nM] | viability, T/C [7] [%] | viability, T/C [8] [%] | viability, T/C [9] [%] | viability, T/C [10] [%] | viability, T/C [13] [%] | viability, T/C [14] [%] | viability, T/C [15] [%] | viability, T/C [16] [%] | viability, T/C [19] [%] | viability, T/C [20] [%] | viability, T/C [21] [%] | viability, T/C [22] [%] | viability, T/C [25] [%] | viability, T/C [26] [%] | viability, T/C [27] [%] | viability, T/C [28] [%] | other results |
| --- | --- | --- | --- | --- | --- | --- | --- | --- | --- | --- | --- | --- | --- | --- | --- | --- | --- | --- | --- | --- | --- |
| CN(C)C/C=C/C(=O)Nc1cc2c(Nc3ccc(F)c(Cl)c3)ncnc2cc1O[C@H]1CCOC1 + C=CC(=O)N1CCN(c2nc(OCC3CCCN3C)nc3c2CCN(c2cccc4cccc(C)c24)C3)CC1CC#N | > 100 | > 100 | > 100 | < 0.316 | 86.3 | 92.9 | 83.8 | 83.9 | 94.6 | 94.9 | 82.1 | 84.4 | 65.9 | 69.4 | 77.4 | 58.3 | 0.17 | 0.17 | 1.41 | 0.2 | IC50 (second compound 0.0316 µM): > 100 nM; viability, T/C (second compound 0.0316 µM, first compound 0.000316 µM): 102%; viability, T/C (second compound 0.0316 µM, first compound 0.001 µM): 101%; viability, T/C [1]: 85%; viability, T/C [2]: 105%; viability, T/C [3]: 102%; viability, T/C [4]: 87.2%; viability, T/C [5]: 101%; viability, T/C [6]: 109%; viability, T/C [11]: 99.9%; viability, T/C [12]: 99.8%; viability, T/C [17]: 84.5%; viability, T/C [18]: 75.2%; viability, T/C [23]: 0.17%; viability, T/C [24]: 0.19% |
| CC1COCCN1c1cc(-c2ccnn2C)c2ccnc(-c3ccn[nH]3)c2n1 (stereo not given) + CNCc1ccccc1-c1csc(C(C)Nc2nc(C)nc3cc(OC)c(OC)cc23)c1 | 25 | 29.9 | 18.5 | < 10 |  | 114 | 33.4 | 10.6 |  | 107 | 47.1 | 11.1 |  | 92.1 | 13.4 | 3.84 |  | 0.09 | 0.21 | 0.12 | IC50 (second compound 10 µM): < 10 nM; viability, T/C [29]: 7.11%; viability, T/C [30]: 5.04%; viability, T/C (second compound 0.1 µM, first compound 3.16 µM): 3.83%; viability, T/C [31]: 5.41%; viability, T/C [32]: 4.13%; viability, T/C (second compound 0.316 µM, first compound 3.16 µM): 3.71%; viability, T/C [33]: 4.41%; viability, T/C [34]: 3.23%; viability, T/C (second compound 1 µM, first compound 3.16 µM): 2.84%; viability, T/C [35]: 0.03%; viability, T/C [36]: 0.04%; viability, T/C (second compound 3.16 µM, first compound 3.16 µM): 0.13%; viability, T/C [37]: 0.08%; viability, T/C [38]: 0.07%; viability, T/C [39]: 0.07%; viability, T/C (second compound 10 µM, first compound 0.316 µM): 0.07%; viability, T/C (second compound 10 µM, first compound 1 µM): 0.08%; viability, T/C (second compound 10 µM, first compound 3.16 µM): 0.13% |
| CCN1CCN(Cc2ccc(Nc3ncc(F)c(-c4cc(F)c5nc(C)n(C(C)C)c5c4)n3)nc2)CC1 + C=CC(=O)N1CCN(c2nc(OCC3CCCN3C)nc3c2CCN(c2cccc4cccc(C)c24)C3)CC1CC#N | 6.76 | 6 | < 3.16 | < 3.16 | 80.7 | 31.3 | 20.2 | 15.4 | 64.8 | 40.2 | 15.8 | 19.1 | 46.1 | 24.9 | 15.2 | 12.4 | 0.15 | 0.09 | 0.07 | 0.08 | IC50 (second compound 0.0316 µM): 4.51 nM; viability, T/C [1]: 56%; viability, T/C [2]: 37.7%; viability, T/C [3]: 19.3%; viability, T/C [4]: 16.6%; viability, T/C (second compound 0.0316 µM, first compound 0.316 µM): 14.1%; viability, T/C (second compound 0.0316 µM, first compound 1 µM): 4.49%; viability, T/C [29]: 10.2%; viability, T/C [30]: 3.97%; viability, T/C [31]: 10.4%; viability, T/C [32]: 2.4%; viability, T/C [33]: 8.99%; viability, T/C [34]: 0.45%; viability, T/C [35]: 0.08%; viability, T/C [36]: 0.19% |
| CC(C)n1nc(-c2ccc3oc(N)nc3c2)c2c(N)ncnc21 + C=CC(=O)N1CCN(c2nc(=O)n(-c3c(C)ccnc3C(C)C)c3nc(-c4c(O)cccc4F)c(F)cc23)C(C)C1 | 0.827 | 0.865 | 0.551 | < 0.316 | 17.4 | 9.72 | 7.63 | 6.75 | 19 | 8.07 | 7.39 | 6.37 | 15.7 | 8.07 | 6.75 | 6.16 | 10.3 | 7.68 | 6.06 | 6.09 | IC50 (second compound 10 µM): < 0.316 nM; viability, T/C [5]: 87.7%; viability, T/C [6]: 42.6%; viability, T/C [11]: 70.5%; viability, T/C [12]: 47%; viability, T/C [17]: 68%; viability, T/C [18]: 30.5%; viability, T/C [23]: 37.9%; viability, T/C [24]: 35.5%; viability, T/C (second compound 10 µM, first compound 0.000316 µM): 26.1%; viability, T/C (second compound 10 µM, first compound 0.001 µM): 15.7%; viability, T/C (second compound 10 µM, first compound 0.00316 µM): 10.1%; viability, T/C [37]: 7.31%; viability, T/C [38]: 6.65%; viability, T/C [39]: 6.48% |
